Test results as given in patent US6080771A, “DC107 derivatives” (Kyowa Hakko Kogyo Co., Ltd., priority 1996, dated 2000).
Converted amounts (≈) assume the structure as drawn. Like-named read-outs stand apart in the source and are kept apart here.

Tests used:
HeLa S3 cells = assay: HeLa S3 cell growth inhibition test (Neutral Red); format: cell-based; conditions: Homo sapiens, read-out: HeLa S3 Cell Growth Inhibition Activity, IC50
Experimental: In each well of a 96-well microtiter plate was placed 0.1 mL of HeLa S3 cells having a concentration of 8×10^3 cells/mL and prepared in an MEM culture medium containing 10% fetal bovine serum and 2 mM glutamine. After the cells were incubated overnight at 37° C. in a carbon dioxide incubator, a test compound suitably diluted with a medium was added to the wells in an amount of 0.05 mL for each well. The cells were incubated at 37° C. for 72 hours in a carbon dioxide incubator. After the culture supernatant was removed, 0.1 mL of a culture medium containing 0.02% Neutral Red was added to each well. The cells were then incubated at 37° C. for 1 hour in a carbon dioxide incubator to dye the cells. After the culture supernatant was removed, each residue was rinsed once with physiological saline and the pigment was extracted with 0.001N hydrochloric acid/30% ethanol. The absorbance at 550 nm of each extract was measured with a microplate reader. The drug concentration required for the 50% inhibition of cell growth, which is referred to as IC50, was calculated by comparing the absorbance for untreated cells with those for cells treated with the drug in known concentrations.

[1] = test system: Sarcoma 180 mouse solid tumor; assay: Antitumor activity against Sarcoma 180 mouse solid tumor; format: in vivo, male ddY mice; conditions: Sarcoma-180, iv, 168 h, single i.v., tumor volume on day 7 from transplant, read-out: T/C (tumor volume ratio treated/control)
Experimental: To a ddY mouse were intraperitoneally transplanted 5×10^6 sarcoma 180 cells. On the seventh day from the transplant, the cells were collected from the ascites, washed once with sterilized physiological saline, and then diluted with sterilized physiological saline to prepare a cell suspension having a concentration of 5×10^7 cells/mL. This suspension was transplanted in an amount of 0.01 mL to a subcutaneous part of the right axilla of each of male ddY mice each weighing 20±1 g.
A test compound was dissolved in physiological saline containing polyoxyethylene sorbitan monolaurate. At 24 hours after the tumor transplant, 0.2 mL of the solution was intravenously administered to the tail of each of a group of five mice.

[2] = test system: Bacillus substilis NO. 10707; assay: Antimicrobial activity, agar dilution method (MIC), BS; format: cell-based
Source text: | BS: Bacillus substilis NO. 10707

[3] = test system: Staphylococcus aureus ATCC 6538P; assay: Antimicrobial activity, agar dilution method (MIC), SA; format: cell-based; conditions: ATCC6538P, pH 7, read-out: MIC, SA
Source text: | SA: Staphylococcus aureus ATCC 6538P

Escherichia coli ATCC 26 = assay: Antimicrobial activity, agar dilution method (MIC), EC; format: cell-based
Source text: | EC: Escherichia coli ATCC 26

[4] = test system: Klebisiella pneumoniae ATCC 10031; assay: Antimicrobial activity, agar dilution method (MIC), KP; format: cell-based
Source text: | KP: Klebisiella pneumoniae ATCC 10031

[5] = test system: Enterococcus hirae ATCC 10541; assay: Antimicrobial activity, agar dilution method (MIC), EH; conditions: pH 7
Experimental: Antimicrobial activity was determined by the agar dilution method using a culture medium (pH 7) prepared by dissolving 3 g of Bacto-Tryptone (manufactured by Difco, Co.), 3 g of meat extract, 1 g of yeast extract, 1 g of glucose, and 16 g of agar in 1 l of water.
EH: Enterococcus hirae ATCC 10541

[6] = NO.10707, agar dilution, pH 7, read-out: MIC, BS
[7] = ATCC26, pH 7, read-out: MIC, EC
[8] = agar dilution, pH 7, read-out: MIC, KP
[9] = NO.10707, pH 7, read-out: MIC, BS

CC(=O)O[C@@H]1C=CC(OC2/C=C(\C)CCC3(C(C)(O)C(=O)SCc4oc(=O)oc4C)CC(=O)N(C(C)c4nc(cs4)/C=C\C=C\C2=O)[S+]3[O-])O[C@H]1C (some centres unmarked) [Compound 69]
IC50 (HeLa S3 cells; HeLa S3, 72 hours, 37° C.): 3.2 nM

C/C1=C\C(OC2C=C[C@@H](O)[C@H](C)O2)C(=O)/C=C/C=C\c2csc(n2)C(C)N2C(=O)CC(C(C)(O)C(=O)SCc3oc(=O)oc3C)(CC1)[S+]2[O-] (some centres unmarked) [Compound 67]
response vs control in vivo at 8 mg/kg [1]: 44%

COCCOCCOC(C)(C)C(=O)OC1/C=C(\C)CCC2(CC(=O)NC(C)c3nc(cs3)/C=C\C=C\C1=O)[S+]([O-])SC(=O)C2(C)O (centres unmarked) [Compound 10]
MIC [2, 6]: 0.041 µg/mL (≈ 0.0587 µM) | MIC ([3]; agar dilution): 0.081 µg/mL (≈ 0.116 µM) | MIC (Escherichia coli ATCC 26; [7]): 0.65 µg/mL (≈ 0.93 µM) | MIC [4, 8]: 0.65 µg/mL (≈ 0.93 µM) | MIC, EH [5]: 0.081 µg/mL (≈ 0.116 µM)

COCCOCCOCC(=O)OCCOCCOCC(=O)OC1/C=C(\C)CCC2(CC(=O)NC(C)c3nc(cs3)/C=C\C=C\C1=O)[S+]([O-])SC(=O)C2(C)O (centres unmarked) [Compound 30]
response vs control in vivo at 4 mg/kg [1]: 43%

C/C1=C\C(OC(=O)COCCOCCOCCOCCO)C(=O)/C=C/C=C\c2csc(n2)C(C)NC(=O)CC2(CC1)[S+]([O-])SC(=O)C2(C)O (centres unmarked) [Compound 27]
MIC [2, 6]: 0.13 µg/mL (≈ 0.175 µM) | MIC ([3]; agar dilution): 0.13 µg/mL (≈ 0.175 µM) | response vs control in vivo at 8 mg/kg [1]: 18% | MIC (Escherichia coli ATCC 26; [7]): 16.7 µg/mL (≈ 22.4 µM) | MIC [4, 8]: 0.065 µg/mL (≈ 0.0873 µM) | MIC, EH [5]: 0.065 µg/mL (≈ 0.0873 µM)

COCCOCCOCCOCC(=O)OC1/C=C(\C)CCC2(C(C)(O)C(=O)SCc3oc(=O)oc3C)CC(=O)N(C(C)c3nc(cs3)/C=C\C=C\C1=O)[S+]2[O-] (centres unmarked) [Compound 13]
response vs control in vivo at 8 mg/kg [1]: 39%

CC(=O)O[C@@H]1C=CC(OC2/C=C(\C)CCC3(C(C)(O)C(=O)SCc4oc(=O)oc4C)CC(=O)N(C(C)c4nc(cs4)/C=C\C=C\C2=O)[S+]3[O-])O[C@H]1C (some centres unmarked) [Compound 68]
response vs control in vivo at 8 mg/kg [1]: 50%

CC(=O)O[C@@H]1C=CC(OC2/C=C(\C)CCC3(CC(=O)NC(C)c4nc(cs4)/C=C\C=C\C2=O)[S+]([O-])SC(=O)C3(C)O)O[C@H]1C (some centres unmarked) [Compound 57]
MIC [2, 6]: 0.033 µg/mL (≈ 0.0496 µM) | MIC ([3]; agar dilution): 0.13 µg/mL (≈ 0.196 µM) | MIC (Escherichia coli ATCC 26; [7]): 0.52 µg/mL (≈ 0.782 µM) | MIC [4, 8]: 0.26 µg/mL (≈ 0.391 µM) | MIC, EH [5]: 0.13 µg/mL (≈ 0.196 µM) | IC50 (HeLa S3 cells; HeLa S3, 72 h): 16 nM

COCCOCCOCC(=O)OC1/C=C(\C)CCC2(C(C)(O)C(=O)SCOC(=O)CC[C@H](NC(=O)[C@@]34O[C@H]5COC(C)(C)O[C@H]5[C@@H]3OC(C)(C)O4)C(=O)OC)CC(=O)N(C(C)c3nc(cs3)/C=C\C=C\C1=O)[S+]2[O-] (some centres unmarked) [Compound 28]
response vs control in vivo at 8 mg/kg [1]: 31%

COCCOCCOCC(=O)OC1/C=C(\C)CCC2(C(C)(O)C(=O)SCOC(=O)COCCOCCO)CC(=O)N(C(C)c3nc(cs3)/C=C\C=C\C1=O)[S+]2[O-] (centres unmarked) [Compound 47]
response vs control in vivo at 8 mg/kg [1]: 40%

COCCOCCOCC(=O)OC1/C=C(\C)CCC2(C(C)(O)C(=O)SCOC(=O)CC[C@H](NC(=O)C3(C)COC(C)(C)OC3)C(=O)OC)CC(=O)N(C(C)c3nc(cs3)/C=C\C=C\C1=O)[S+]2[O-] (some centres unmarked) [Compound 29]
response vs control in vivo at 8 mg/kg [1]: 47%

C/C1=C\C(OC(=O)COCCOCCOCCOCCO)C(=O)/C=C/C=C\c2csc(n2)C(C)N2C(=O)CC(C(C)(O)C(=O)SCc3oc(=O)oc3C)(CC1)[S+]2[O-] (centres unmarked) [Compound 38]
MIC [2, 9]: 1.8 µg/mL (≈ 2.1 µM) | MIC [3]: 3.7 µg/mL (≈ 4.32 µM) | response vs control in vivo at 8 mg/kg [1]: 43% | MIC ([4]; pH 7, read-out: MIC, KP): 1.8 µg/mL (≈ 2.1 µM) | MIC, EH [5]: 1.8 µg/mL (≈ 2.1 µM)

C/C1=C\C(OC(=O)COCCCCO)C(=O)/C=C/C=C\c2csc(n2)C(C)NC(=O)CC2(CC1)[S+]([O-])SC(=O)C2(C)O (centres unmarked) [Compound 35]
MIC [2, 6]: 0.2 µg/mL (≈ 0.312 µM) | MIC ([3]; agar dilution): 0.098 µg/mL (≈ 0.153 µM) | response vs control in vivo at 4 mg/kg [1]: 22% | MIC (Escherichia coli ATCC 26; [7]): 1.6 µg/mL (≈ 2.5 µM) | MIC [4, 8]: 0.098 µg/mL (≈ 0.153 µM) | MIC, EH [5]: 0.098 µg/mL (≈ 0.153 µM)

COCCOCCOCCOCCOCCOCC(=O)OC1/C=C(\C)CCC2(C(C)(O)C(=O)SCOC(=O)CNC(=O)OC(C)(C)C)CC(=O)N(C(C)c3nc(cs3)/C=C\C=C\C1=O)[S+]2[O-] (centres unmarked) [Compound 24]
IC50 (HeLa S3 cells; HeLa S3, 72 hours, 37° C.): 21 nM

COCCOCC(=O)OCCOCCOCC(=O)OC1/C=C(\C)CCC2(CC(=O)NC(C)c3nc(cs3)/C=C\C=C\C1=O)[S+]([O-])SC(=O)C2(C)O (centres unmarked) [Compound 31]
MIC [2, 6]: 0.057 µg/mL (≈ 0.0737 µM) | MIC ([3]; agar dilution): 0.11 µg/mL (≈ 0.142 µM) | response vs control in vivo at 8 mg/kg [1]: 12% | MIC (Escherichia coli ATCC 26; [7]): 3.65 µg/mL (≈ 4.72 µM) | MIC [4, 8]: 0.057 µg/mL (≈ 0.0737 µM) | MIC, EH [5]: 0.11 µg/mL (≈ 0.142 µM)

COCCOCCOCC(=O)OC1/C=C(\C)CCC2(C(C)(O)C(=O)SCOC(=O)OCCN3CCCC3=O)CC(=O)N(C(C)c3nc(cs3)/C=C\C=C\C1=O)[S+]2[O-] (centres unmarked) [Compound 44]
response vs control in vivo at 2 mg/kg [1]: 43%

C/C1=C\C(OC(=O)COCCOCCO)C(=O)/C=C/C=C\c2csc(n2)C(C)NC(=O)CC2(CC1)[S+]([O-])SC(=O)C2(C)O (centres unmarked) [Compound 8]
MIC [2, 6]: 0.13 µg/mL (≈ 0.198 µM) | MIC ([3]; agar dilution): 0.13 µg/mL (≈ 0.198 µM) | response vs control in vivo at 4 mg/kg [1]: 36% | MIC (Escherichia coli ATCC 26; [7]): 2.1 µg/mL (≈ 3.2 µM) | MIC [4, 8]: 0.13 µg/mL (≈ 0.198 µM) | MIC, EH [5]: 0.13 µg/mL (≈ 0.198 µM)

C/C1=C\C(OC(=O)COCCCO)C(=O)/C=C/C=C\c2csc(n2)C(C)NC(=O)CC2(CC1)[S+]([O-])SC(=O)C2(C)O (centres unmarked) [Compound 33]
MIC [2, 6]: 0.065 µg/mL (≈ 0.104 µM) | MIC ([3]; agar dilution): 0.13 µg/mL (≈ 0.207 µM) | response vs control in vivo at 2 mg/kg [1]: 36% | MIC (Escherichia coli ATCC 26; ATCC26, agar dilution, pH 7, read-out: MIC, EC): 1 µg/mL (≈ 1.6 µM) | MIC [4, 8]: 0.13 µg/mL (≈ 0.207 µM) | MIC, EH [5]: 0.065 µg/mL (≈ 0.104 µM)

CC(=O)O[C@H]1[C@H](C)OC(OC2/C=C(\C)CCC3(C(C)(O)C(=O)SCc4oc(=O)oc4C)CC(=O)N(C(C)c4nc(cs4)/C=C\C=C\C2=O)[S+]3[O-])C[C@@H]1OC(C)=O (some centres unmarked) [Compound 66]
response vs control in vivo at 4 mg/kg [1]: 47% | IC50 (HeLa S3 cells; HeLa S3, 72 hours, 37° C.): 6.1 nM

COCCOCCOCC(=O)OC1/C=C(\C)CCC2(C(C)(O)C(=O)SCOC(=O)CC[C@H](NC(=O)OC(C)(C)C)C(=O)OC(C)(C)C)CC(=O)N(C(C)c3nc(cs3)/C=C\C=C\C1=O)[S+]2[O-] (some centres unmarked) [Compound 23]
response vs control in vivo at 8 mg/kg [1]: 48% | IC50 (HeLa S3 cells; HeLa S3, 72 hours, 37° C.): 43 nM

COCCOCCOCCOCCOCCOCC(=O)OC1/C=C(\C)CCC2(C(C)(O)C(=O)SCC3=C(C)OC(C)(C)OC3=O)CC(=O)N(C(C)c3nc(cs3)/C=C\C=C\C1=O)[S+]2[O-] (centres unmarked) [Compound 21]
response vs control in vivo at 16 mg/kg ([1]; 16 mg/kg): 45%

COCCOCC(=O)OC1/C=C(\C)CCC2(C(C)(O)C(=O)SCc3oc(=O)oc3C)CC(=O)N(C(C)c3nc(cs3)/C=C\C=C\C1=O)[S+]2[O-] (centres unmarked) [Compound 11]
IC50 (HeLa S3 cells; HeLa S3, 72 hours, 37° C.): 30 nM

C/C1=C\C(OC(=O)COCCOCCO)C(=O)/C=C/C=C\c2csc(n2)C(C)N2C(=O)CC(C(C)(O)C(=O)SCc3oc(=O)oc3C)(CC1)[S+]2[O-] (centres unmarked) [Compound 17]
MIC [2, 9]: 1.82 µg/mL (≈ 2.37 µM) | MIC [3]: 1.8 µg/mL (≈ 2.34 µM) | response vs control in vivo at 8 mg/kg [1]: 37% | MIC ([4]; pH 7, read-out: MIC, KP): 1.8 µg/mL (≈ 2.34 µM) | MIC, EH [5]: 1.8 µg/mL (≈ 2.34 µM)

COCCOCCOCC(=O)OC1/C=C(\C)CCC2(C(C)(O)C(=O)SCOC(=O)OCCOCCOC)CC(=O)N(C(C)c3nc(cs3)/C=C\C=C\C1=O)[S+]2[O-] (centres unmarked) [Compound 45]
response vs control in vivo at 4 mg/kg [1]: 45%
